Like-named read-outs stand apart in the source and are kept apart here.
Assays:
Type in all cases: cell-based
[1] = test system: IL3000 T. congolense (drug sensitive) strain; experiment: In vitro Alamar Blue 72 hrs drug sensitivity assay for T. congolense; conditions: Trypanosoma congolense, IL3000 T. congolense bloodstream form, read-out: T. congo Act.
Procedure: In Vitro Alamar Blue 72 Hrs Drug Sensitivity Assay for T. Congolense. Compounds were tested in vitro for chemotherapeutic efficacy against the IL3000 T. congolense (drug sensitive) strain using an Alamar Blue assay. Test compounds were prepared as 10 mg/mL DMSO stocks for each assay run. Compounds were assayed in at least three separate, independent test runs and an 11-point dilution curve was used to determine the IC50 values. Bloodstream form trypanosomes were supported in HMI media containing 20% bovine serum and were incubated with test compounds for 69 hrs at 34° C. in a humidified atmosphere containing 5% CO2. Thereafter, 10 μL of Resazurin dye (12.5 mg in 100 mL of phosphate buffered saline, Sigma-Aldrich, Buchs, Switzerland) were added for an additional 3 hrs. Plates were then read using a fluorescent plate reader (Spectramax, Gemini XS, Bucher Biotec, Basel, Switzerland) using an excitation wavelength of 536 nm and an emission wavelength of 588 nm. Data points were averaged to generate sigmoidal dose-response curves and IC50 values were determined using Softmax Pro 5.2 software.

[2] = test system: STIB 719/ILRAD 560 T. vivax (drug sensitive) strain; experiment: Ex vivo Alamar Blue 48 hrs drug sensitivity assay for T. vivax; conditions: Trypanosoma vivax, read-out: T. vivax Act.
Procedure: Ex vivo Alamar Blue48 hrs drug sensitivity assay for T. vivax. Compounds were tested ex vivo for chemotherapeutic efficacy against the STIB 719/ILRAD 560 T. vivax (drug sensitive) strain, using an Alamar Blue assay. Test compounds were prepared as 10 mg/mL DMSO stocks for each assay run. Compounds were assayed in at least three separate, independent test runs and an 11-point dilution curve was used to determine the IC50 values. Bloodstream form trypanosomes were propagated and harvested from a highly parasitaemic mouse (via cardiac puncture) and were incubated with test compounds for 45 hrs at 37° C. in a humidified atmosphere containing 5% CO2, supported in HMI media containing 20% bovine serum. Thereafter, 10 μL of Resazurin dye (12.5 mg in 100 mL of phosphate buffered saline, Sigma-Aldrich, Buchs, Switzerland) were added for an additional 3 hrs. Plates were then read using a fluorescent plate reader (Spectramax, Gemini XS, Bucher Biotec, Basel, Switzerland) using an excitation wavelength of 536 nm and an emission wavelength of 588 nm. Data points were averaged to generate sigmoidal dose-response curves and IC50 values were determined using Softmax Pro 5.2 software.

[3] = test system: STIB 806 K T. evansi (drug sensitive) strain; experiment: In vitro Alamar Blue 72 hrs drug sensitivity assay for T. evansi; conditions: read-out: T. evansi Act.
Procedure: In vitro Alamar Blue 72 hrs drug sensitivity assay for T. evansi. Compounds were tested in vitro for chemotherapeutic efficacy against the STIB 806 K T. evansi (drug sensitive) strain, using an Alamar Blue assay. Test compounds were prepared as 10 mg/mL DMSO stocks for each assay run. Compounds were assayed in at least three separate, independent test runs and an 11-point dilution curve was used to determine the IC50 values. Bloodstream form trypanosomes were incubated with test compounds for 69 hrs at 37° C. in a humidified atmosphere containing 5% CO2, supported in HMI media containing 15% horse serum. Thereafter, 10 μL of Resazurin dye (12.5 mg in 100 mL of phosphate buffered saline, Sigma-Aldrich, Buchs, Switzerland) were added for an additional 3 hrs. Plates were then read using a fluorescent plate reader (Spectramax, Gemini XS, Bucher Biotec, Basel, Switzerland) using an excitation wavelength of 536 nm and an emission wavelength of 588 nm. Data points were averaged to generate sigmoidal dose-response curves and IC50 values were determined using Softmax Pro 5.2 software.

[4] = STIB719, STIB 719/ILRAD 560 T. vivax bloodstream form, ex vivo, Alamar Blue, 48 hrs
[5] = STIB 806 K T. evansi bloodstream form, Alamar Blue, 72 hrs

SMILES	IC50 [1]	IC50 [2, 4]	IC50 [3, 5]	IC50 ([2]; STIB719, 48 h)	IC50 ([3]; 72 h)
CC1(Nc2ncc3nc(Nc4cccc(Cl)c4)n(C4CCC(CN)CC4)c3n2)CCOCC1 (centres unmarked) [A-1, 9-((1s,4s)-4-(aminomethyl)cyclohexyl)-N8-(3-chlorophenyl)-N2-(4-methyltetrahydro-2H-pyran-4-yl)-9H-purine-2,8-diamine]	< 150 nM	< 150 nM	< 150 nM	–	–
CC1(Nc2ncc3nc(Nc4cccc(Cl)c4)n(C4CCC(CN)CC4)c3n2)CCCC1 (centres unmarked) [A-4, 9-((1s,4s)-4-(aminomethyl)cyclohexyl)-N8-(3-chlorophenyl)-N2-(1-methylcyclopentyl)-9H-purine-2,8-diamine]	< 150 nM	–	–	< 150 nM	< 150 nM
CN(C)C[C@H]1CC[C@@H](n2c(Nc3cccc(Cl)c3)nc3cnc(NC4(C)CCOCC4)nc32)CC1 [A-5, N8-(3-chlorophenyl)-9-((1s,4s)-4-((dimethylamino)methyl)cyclohexyl)-N2-(4-methyltetrahydro-2H-pyran-4-yl)-9H-purine-2,8-diamine]	< 150 nM	< 150 nM	< 150 nM	–	–
CC1(Nc2ncc3nc(Nc4cccc(Cl)c4)n([C@H]4CC[C@H](CN)CC4)c3n2)CCOCC1 [A-7, 9-((1r,4r)-4-(aminomethyl)cyclohexyl)-N8-(3-chlorophenyl)-N2-(4-methyltetrahydro-2H-pyran-4-yl)-9H-purine-2,8-diamine]	< 150 nM	< 150 nM	< 150 nM	–	–
CC(=O)NC[C@H]1CC[C@@H](n2c(Nc3cccc(Cl)c3)nc3cnc(NC4(C)CCOCC4)nc32)CC1 [A-11, N-(((1s,4s)-4-(8-(3-chlorophenylamino)-2-(4-methyltetrahydro-2H-pyran-4-ylamino)-9H-purin-9-yl)cyclohexyl)methyl)acetamide]	350 to 500 nM	< 150 nM	350 to 500 nM	–	–
CCC(C)(C)Nc1ncc2nc(Nc3cccc(C(F)(F)F)c3)n([C@H]3CC[C@@H](CN)CC3)c2n1 [A-13, 9-((1s,4s)-4-(aminomethyl)cyclohexyl)-N2-tert-pentyl-N8-(3-(trifluoromethyl)phenyl)-9H-purine-2,8-diamine]	< 150 nM	< 150 nM	< 150 nM	–	–
CC1(Nc2ncc3nc(Nc4cccc(C(F)(F)F)c4)n([C@H]4CC[C@@H](CN)CC4)c3n2)CCOCC1 [A-28, 9-((1s,4s)-4-(aminomethyl)cyclohexyl)-N2-(4-methyltetrahydro-2H-pyran-4-yl)-N8-(3-(trifluoromethyl)phenyl)-9H-purine-2,8-diamine]	< 150 nM	< 150 nM	< 150 nM	–	–
CC1(Nc2ncc3nc(Nc4ccnc(C(F)(F)F)c4)n([C@H]4CC[C@@H](CN)CC4)c3n2)CCOCC1 [A-34, 9-((1s,4s)-4-(aminomethyl)cyclohexyl)-N2-(4-methyltetrahydro-2H-pyran-4-yl)-N8-(2-(trifluoromethyl)pyridin-4-yl)-9H-purine-2,8-diamine]	< 150 nM	< 150 nM	< 150 nM	–	–
CC1(Nc2ncc3nc(Nc4cc(Cl)cc(C(F)(F)F)c4)n([C@H]4CC[C@@H](CN)CC4)c3n2)CCOCC1 [A-36, 9-((1s,4s)-4-(aminomethyl)cyclohexyl)-N8-(3-chloro-5-(trifluoromethyl)phenyl)-N2-(4-methyltetrahydro-2H-pyran-4-yl)-9H-purine-2,8-diamine]	< 150 nM	< 150 nM	150 to 350 nM	–	–
CC1(Nc2ncc3nc(Nc4cccc(OC(F)(F)F)c4)n([C@H]4CC[C@@H](CN)CC4)c3n2)CCOCC1 [A-37, 9-((1s,4s)-4-(aminomethyl)cyclohexyl)-N2-(4-methyltetrahydro-2H-pyran-4-yl)-N8-(3-(trifluoromethoxy)phenyl)-9H-purine-2,8-diamine]	< 150 nM	< 150 nM	< 150 nM	–	–
CC1(Nc2ncc3nc(Nc4ccc(OC(F)(F)F)cc4)n([C@H]4CC[C@@H](CN)CC4)c3n2)CCOCC1 [A-38, 9-((1s,4s)-4-(aminomethyl)cyclohexyl)-N2-(4-methyltetrahydro-2H-pyran-4-yl)-N8-(4-(trifluoromethoxy)phenyl)-9H-purine-2,8-diamine]	< 150 nM	< 150 nM	150 to 350 nM	–	–
CC1(Nc2ncc3nc(Nc4cccc(Cl)c4)n([C@H]4CC[C@@H](CN5CCCCC5)CC4)c3n2)CCOCC1 [A-40, N8-(3-chlorophenyl)-N2-(4-methyltetrahydro-2H-pyran-4-yl)-9-((1s,4s)-4-(piperidin-1-ylmethyl)cyclohexyl)-9H-purine-2,8-diamine]	< 150 nM	< 150 nM	< 150 nM	–	–
CC1(Nc2ncc3nc(Nc4cc(Cl)cc(Cl)c4)n([C@H]4CC[C@@H](CN)CC4)c3n2)CCOCC1 [A-43, 9-((1s,4s)-4-(aminomethyl)cyclohexyl)-N8-(3,5-dichlorophenyl)-N2-(4-methyltetrahydro-2H-pyran-4-yl)-9H-purine-2,8-diamine]	< 150 nM	< 150 nM	< 150 nM	–	–
CC1(Nc2ncc3nc(Nc4cc(F)cc(F)c4)n([C@H]4CC[C@@H](CN)CC4)c3n2)CCOCC1 [A-44, 9-((1s,4s)-4-(aminomethyl)cyclohexyl)-N8-(3,5-difluorophenyl)-N2-(4-methyltetrahydro-2H-pyran-4-yl)-9H-purine-2,8-diamine]	< 150 nM	< 150 nM	< 150 nM	–	–
CC1(Nc2ncc3nc(Nc4cc(Cl)ccc4F)n([C@H]4CC[C@@H](CN)CC4)c3n2)CCOCC1 [A-50, 9-((1s,4s)-4-(aminomethyl)cyclohexyl)-N8-(5-chloro-2-fluorophenyl)-N2-(4-methyltetrahydro-2H-pyran-4-yl)-9H-purine-2,8-diamine]	< 150 nM	–	< 150 nM	–	–
CN(C)C[C@H]1CC[C@@H](n2c(Nc3cccc(C(F)(F)F)c3)nc3cnc(NC4(C)CCOCC4)nc32)CC1 [A-56, 9-((1s,4s)-4-((dimethylamino)methyl)cyclohexyl)-N2-(4-methyltetrahydro-2H-pyran-4-yl)-N8-(3-(trifluoromethyl)phenyl)-9H-purine-2,8-diamine]	< 150 nM	–	< 150 nM	–	–
NCC1CCC(n2c(Nc3cc(Cl)cc(C(F)(F)F)c3)nc3cnc(NC4CCOCC4)nc32)CC1 (centres unmarked) [B-12, 9-((1s,4s)-4-(aminomethyl)cyclohexyl)-N8-(3-chloro-5-(trifluoromethyl)phenyl)-N2-(tetrahydro-2H-pyran-4-yl)-9H-purine-2,8-diamine]	350 to 500 nM	350 to 500 nM	–	–	–
CN(C)c1ncc2nc(Nc3cc(C(F)(F)F)ccc3F)n(C3CCC(CN)CC3)c2n1 (centres unmarked) [B-14, 9-((1s,4s)-4-(aminomethyl)cyclohexyl)-N8-(2-fluoro-5-(trifluoromethyl)phenyl)-N2,N2-dimethyl-9H-purine-2,8-diamine]	350 to 500 nM	< 150 nM	–	–	–
NCC1CCC(n2c(Nc3cc(C(F)(F)F)ccc3F)nc3cnc(N4CCCC4)nc32)CC1 (centres unmarked) [B-15, 9-((1s,4s)-4-(aminomethyl)cyclohexyl)-N-(2-fluoro-5-(trifluoromethyl)phenyl)-2-(pyrrolidin-1-yl)-9H-purin-8-amine]	150 to 350 nM	< 150 nM	–	–	–
NCC1CCC(n2c(Nc3cc(C(F)(F)F)ccc3F)nc3cnc(NC4CCOCC4)nc32)CC1 (centres unmarked) [B-16, 9-((1s,4s)-4-(aminomethyl)cyclohexyl)-N8-(2-fluoro-5-(trifluoromethyl)phenyl)-N2-(tetrahydro-2H-pyran-4-yl)-9H-purine-2,8-diamine]	350 to 500 nM	< 150 nM	–	–	–
NCC1CCC(n2c(Nc3cc(Cl)ccc3F)nc3cnc(NC4CCOCC4)nc32)CC1 (centres unmarked) [B-17, 9-((1s,4s)-4-(aminomethyl)cyclohexyl)-N8-(5-chloro-2-fluorophenyl)-N2-(tetrahydro-2H-pyran-4-yl)-9H-purine-2,8-diamine]	< 150 nM	< 150 nM	–	–	–

— US10420772B2, “Animal and human anti-trypanosomonal and anti-leishmania agents” (Celgene Corporation, priority 2016, dated 2019)
